The values that follow come from paper PMC8945686, “Anticancer Effects with Molecular Docking Confirmation of Newly Synthesized Isatin Sulfonamide Molecular Hybrid Derivatives against Hepatic Cancer Cell Lines” (Biomedicines, 2022).

Where “and” joins values, the source holds several entries; their conditions need not be identical. Identical values can stand only once. Marks after values point to notes of the source that are not given here.

For test [1], the system named is Huh7 cells. Kind of test: MTT cytotoxicity assay on Huh7 cells. The format is cell-based, human. The settings on record: for % Death Rate at 100 p.p.m (μg/mL) Huh7: 48 h; for IC50: Homo sapiens, Huh-7, 48 h. As for the experimental part:
(§1) MTT-based cell viability assay was carried out to evaluate the antiproliferation potential of the target compounds on HCC cell lines (HepG2 and Huh7). The half maximal inhibitory concentration (IC50) values were calculated against DMSO non-treated HepG2 cells (negative control) and Dox-treated HepG2 cells (positive control). The assay was conducted using 3-(4, 5-di-MethylThiazol-2-yl)-2,5-diphenyl Tetrazolium bromide (MTT) to test cell viability, according to the method described by Mosmann with minor changes. The yellow MTT is reduced in the viable cells to purple formazan. The insoluble formazan is solubilized by DMSO to colored solution measured spectrophotometrically. Briefly, cells were seeded in a 96-well plate at density of 1 × 10^4 cells/well for 24 h in 5% CO2 incubator at 37 °C to allow their adherence. […] After incubation, 20 μL of a 5 mg/mL MTT solution were mixed with the contents of each well, and the plate was incubated for another 4 h. Then, the medium was suctioned, and the wells were washed with PBS. After 2 h of drying, 200 μL of DMSO was added to each well. The plate was set on a shaker to dissolve the formazan crystals. Then, the absorbance was measured spectrophotometrically at 570 nm with a reference wavelength of 630 nm using ELX800 UV universal microplate reader (BioTek Instruments Inc., VT, Santa Clara, CA, USA).
(§2) All experiment conditions were tested in three replicates. The % cell viability was calculated from the following equation: (mean absorbance of treated sample/mean absorbance of negative control sample) × 100. The % death rate = 100 -% cell viability, and the inhibitory concentration of 50% (IC50) was measured from the exponential curve of viability against concentration (dose–response curve).

Test [2] has as its system HepG2 cells. The experiment in a line: Annexin V/FITC-PI apoptosis assay. The format is cell-based, human. The settings on record: for %Cell Death Early Apoptosis / %Cell Death Late Apoptosis / %Cell Death Total Apoptosis / Necrosis: HepG2, IC50 of the compound, 24 h (method says 48 h). As for the experimental part: Annexin V/PI double staining kit (eBiosciencesDx) was used to detect apoptotic activity of the selected isatin sulfonamide derivatives. The Annexin V corresponding signal provides a very sensitive marker for cellular apoptosis, while PI was used to detect necrotic or late apoptotic cells, identified by the loss of plasma integrity and loss of nuclear membranes.
Briefly, 1 × 10^5 cells/mL of HepG2 cells were seeded into a 6-well plate and incubated at 37 °C, 5% CO2, overnight. […] After time elapsed, trypsinization of cells was carried out. Washing was done by PBS once, followed by fixation using 70% ethanol. Fixed cells were stored at 4 °C for 2 h, then centrifuged at 500× g for 5 min. Again, cells were washed with PBS prior to staining. An amount of 200 μL of the staining solution (annexin V- fluorescein 5-isothiocyanate (FITC) and PI in binding buffer (10 mM HEPES, 140 mM NaCl, and 2.5 mM CaCl2 at pH 7.4)) were added to the cell suspension and incubated at 37 °C for 20 to 30 min in dark and analyzed with a fluorescence-activated cell sorter (FACS) (BD FACSCalibur, BD Biosciences, California, USA). Data were analyzed using ModFit LT v2.0 (Verity Software House, Topsham, Maine, USA).
These plots were divided into four regions corresponding to: • (1) Viable cells, which are negative to both probes (PI/FITC −/−), • (2) Apoptotic cells, which are PI negative and Annexin positive (PI/FITC −/+), • (3) Late apoptotic cells, which are both PI and Annexin positive (PI/FITC +/+), • (4) Necrotic cells, which are PI positive and Annexin negative (PI/FITC+/−).

Test [3] has as its system HepG2 cells. The experiment in a line: MTT cytotoxicity assay on HepG2 cells. Type of test: cell-based. The following applies: Homo sapiens; for cytotoxicity at 100 ppm: 48 h, 100 p.p.m (μg/mL), read-out: % Death Rate at 100 p.p.m (μg/mL) HepG2; for IC50: HepG2, 48 h. On the procedure: as §1, §2

On to `CC(=O)Nc1cccc(C(=O)C=C2C(=O)Nc3ccc(S(=O)(=O)N4CCCCC4)cc32)c1` [Compound 4c, N-(3-(2-(2-oxo-5-(piperidin-1-ylsulfonyl)indolin-3-ylidene)acetyl)phenyl)acetamide], for which, in test [1], the “% Death Rate at 100 p.p.m (μg/mL) Huh7” value is 75.60 * % and half-maximal inhibition (IC50) required 35 ± 1.9 µM. Further, in test [2], the “%Cell Death Early Apoptosis” value is given as 2.88%; the “%Cell Death Late Apoptosis” value is 18.08%; the “%Cell Death Total Apoptosis” value was 32.0% and 32.02%; the Necrosis stood at 11.06%. In addition, in test [3], the cytotoxicity at 100 ppm turned out to be 95.6% and the IC50 was around 39.7 µM.
As to `CC(=O)Nc1ccc(C(=O)C=C2C(=O)Nc3ccc(S(=O)(=O)N4CCCCC4)cc32)cc1` [Compound 4b, N-(4-(2-(2-oxo-5-(piperidin-1-ylsulfonyl)indolin-3-ylidene)acetyl)phenyl)acetamide], in test [1], the “% Death Rate at 100 p.p.m (μg/mL) Huh7” value is given as 76.00 * % and the IC50 came out at 53 ± 3 µM. Moreover, in test [2], the “%Cell Death Early Apoptosis” value was determined as 6.12%; the “%Cell Death Late Apoptosis” value is reported as 12.61%; the “%Cell Death Total Apoptosis” value was 28.1% and 28.14%; the Necrosis is reported as 9.41%. For the same compound, in test [3], the cytotoxicity at 100 ppm turned out to be 94.2% and the IC50 is around 44.7 µM.
On to `COc1cccc2c1C(=O)c1c(O)c3c(c(O)c1C2=O)C[C@@](O)(C(=O)CO)C[C@@H]3O[C@H]1C[C@H](N)[C@H](O)[C@H](C)O1` [Doxorubicin, reference compound], for which, in test [1], the “% Death Rate at 100 p.p.m (μg/mL) Huh7” value is recorded as 100% and the IC50 was 11.6 ± 0.9 µM. In test [2], the “%Cell Death Early Apoptosis” value was 1.85%, the “%Cell Death Late Apoptosis” value amounted to 26.27%, the “%Cell Death Total Apoptosis” value was 42.38% and the Necrosis is given as 14.26%. Also, in test [3], the cytotoxicity at 100 ppm was found to be 100% and the IC50 was 21.6 ± 0.81 µM.
With `Cc1ccc(C(=O)CC2(O)C(=O)Nc3ccc(S(=O)(=O)N4CCCCC4)cc32)cc1` (stereo not drawn) [Compound 3a, 3-hydroxy-3-(2-oxo-2-(p-tolyl)ethyl)-5-(piperidin-1-ylsulfonyl)indolin-2-one], in test [1], the “% Death Rate at 100 p.p.m (μg/mL) Huh7” value was 100 * % and the IC50 came to 40 ± 2.2 µM. In addition, in test [2], the “%Cell Death Early Apoptosis” value amounted to 3.56%; the “%Cell Death Late Apoptosis” value was 29.58%; the “%Cell Death Total Apoptosis” value was 46.3% and 46.29%; the Necrosis was 13.15%. In test [2] (HepG2, negative control 1.47%), the “Total apoptosis, fold greater than negative control HepG2 cells” value came to 31.49 fold. In test [3], the cytotoxicity at 100 ppm amounted to 70.1% and the concentration for half-maximal inhibition (IC50) is around 16.8 µM.
